These compounds were tested against human ALK5 (Homo sapiens (Human), UniProt P36897) (assay: ADP-GLO Kinases assay (ALK5 enzymatic activity)). Conditions: purified recombinant human ALK5 2.6 nM, TGFβ1 peptide substrate, 25° C., 150 min incubation, ADP-Glo detection.
Assay type: biochemical
Method: The enzymatic activity of compounds of the present invention was monitored measuring the formation of ADP using the ADP-GLO Kinases assay. Following the incubation of the purified enzyme, a substrate and ATP, the produced ADP was converted into ATP, which in turn was converted into light by Ultra-Glo Luciferase. The luminescent signal positively correlated with ADP amount and kinase activity. Briefly, the kinase reaction was performed by incubating 2.6 nM of the purified, commercially available human ALK5 (recombinant TGF β1 N-term GST-tagged, 80-end), a final concentration of TGFβ1 peptide 94.5 μM (Promega, T36-58) and ultra-pure ATP (Promega V915B). The ATP concentration was set at the Km value (concentration of substrate which permits the enzyme to achieve half maximal velocity (Vmax)) of ALK5 (5 μM). All reactions/incubations were performed at 25° C. Compound and ALK5 kinase were mixed and incubated for 15 mins. Reactions were initiated by addition of ATP at a final concentration in the assay of 0.83 μM. After an incubation of 150 min, the reaction was stopped, and ADP production detected with ADP-Glo kit according to manufacturer's indications. The assay was performed in 384-well format and was validated using a selection of reference compounds that was tested in 11 point concentration-response curve.

Sequence of human ALK5 (P36897 80-503 limits assumed): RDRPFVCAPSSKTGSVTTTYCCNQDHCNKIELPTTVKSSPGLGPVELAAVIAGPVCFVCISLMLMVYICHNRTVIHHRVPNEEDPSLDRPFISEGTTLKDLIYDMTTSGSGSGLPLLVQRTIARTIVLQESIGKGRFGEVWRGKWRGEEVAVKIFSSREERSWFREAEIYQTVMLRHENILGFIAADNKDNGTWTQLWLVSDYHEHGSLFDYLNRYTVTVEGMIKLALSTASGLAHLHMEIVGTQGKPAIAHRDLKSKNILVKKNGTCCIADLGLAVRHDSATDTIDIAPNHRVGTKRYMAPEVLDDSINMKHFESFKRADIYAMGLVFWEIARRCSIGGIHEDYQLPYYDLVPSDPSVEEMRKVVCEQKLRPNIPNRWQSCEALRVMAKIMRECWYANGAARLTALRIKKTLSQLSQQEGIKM

Row | IC50 | Compound
1 | < 1 nM | COc1cccc(-c2nc3n(c2-c2ccc4ncsc4c2)CCN3)n1 [Example 57, 6-[6-(6-Methoxypyridin-2-yl)-1H,2H,3H-imidazo[1,2-a][1,3]diazol-5-yl]-1,3-benzothiazole]
2 | 1 to 5 nM | Cn1ccc(-c2nc3n(c2-c2cc4cnccc4s2)CCN3)n1 [Example 9, 2-(6-(1-Methyl-1H-pyrazol-3-yl)-2,3-dihydro-1H-imidazo[1,2-a]imidazol-5-yl)thieno[3,2-c]pyridine]
3 | 5 to 10 nM | Cn1ccc(-c2nc3n(c2-c2ccc4ncnn4c2)CCN3)n1 [Example 8, 6-(6-(1-Methyl-1H-pyrazol-3-yl)-2,3-dihydro-1H-imidazo[1,2-a]imidazol-5-yl)-[1,2,4]triazolo[1,5-a]pyridine]
4 | 1 to 5 nM | Cc1cccc(-c2nc3n(c2-c2ccnc4[nH]ccc24)CCN3)n1 [Example 35, 4-(6-(6-Methylpyridin-2-yl)-2,3-dihydro-1H-imidazo[1,2-a]imidazol-5-yl)-1H-pyrrolo[2,3-b]pyridine]
5 | 1 to 5 nM | CCN1CCn2c1nc(-c1cccc(C)n1)c2-c1cc2cnccc2s1 [Example 42, 2-(1-Ethyl-5-{thieno[3,2-c]pyridin-2-yl}-1H,2H,3H-imidazo[1,2-a] [1,3]diazol-6-yl)-6-methylpyridine]
6 | 1 to 5 nM | Cc1cccc(-c2nc3n(c2-c2cc4cnccc4s2)CC(CC(=O)O)N3)n1 (stereo not shown) [Example 21, 2-[6-(6-Methylpyridin-2-yl)-5-{thieno[3,2-c]pyridin-2-yl}-1H,2H,3H-imidazo[1,2-a][1,3]diazol-2-yl]acetic acid]
7 | < 1 nM | Cc1csc(-c2nc3n(c2-c2cc4cnccc4s2)CCN3)n1 [Example 7, 2-(6-(4-Methylthiazol-2-yl)-2,3-dihydro-1H-imidazo[1,2-a]imidazol-5-yl)thieno[3,2-c]pyridine]
8 | 1 to 5 nM | CCOC(=O)C1Cn2c(nc(-c3cccc(C)n3)c2-c2ccc3ncnn3c2)N1 (stereo not shown) [Example 26, Ethyl 6-(6-methylpyridin-2-yl)-5-{[1,2,4]triazolo[1,5-a]pyridin-6-yl}-1H,2H,3H-imidazo[1,2-a][1,3]diazole-2-carboxylate]
9 | 1 to 5 nM | Cc1cccc(-c2nc3n(c2-c2ccc(O)cc2)CCN3)n1 [Example 55, 4-[6-(6-Methylpyridin-2-yl)-1H,2H,3H-imidazo[1,2-a][1,3]diazol-5-yl]phenol]
10 | < 1 nM | Cc1cccc(-c2nc3n(c2-c2ccc4nnsc4c2)CCN3)n1 [Example 31, 6-(6-(6-Methylpyridin-2-yl)-2,3-dihydro-1H-imidazo[1,2-a]imidazol-5-yl)benzo[d][1,2,3] thiadiazole]
11 | < 1 nM | CCN1CCn2c1nc(-c1cccc(C)n1)c2-c1ccc2ncnn2c1 [Example 22, 6-(1-Ethyl-6-(6-methylpyridin-2-yl)-2,3-dihydro-1H-imidazo[1,2-a]imidazol-5-yl)-[1,2,4]triazolo[1,5-a]pyridine]
12 | 1 to 5 nM | Cc1cccc(-c2nc3n(c2-c2cc4cnccc4s2)CC(C(=O)N(C)C)N3)n1 (stereo not shown) [Example 29, N,N-Dimethyl-6-(6-methylpyridin-2-yl)-5-{thieno[3,2-c]pyridin-2-yl}-1H,2H,3H-imidazo[1,2-a][1,3]diazole-2-carboxamide]
13 | 1 to 5 nM | Cc1cccc(-c2nc3n(c2-c2ccc(F)c(N)c2)CCN3)n1 [Example 43, 2-Fluoro-5-(6-(6-methylpyridin-2-yl)-2,3-dihydro-1H-imidazo[1,2-a]imidazol-5-yl) aniline]
14 | 1 to 5 nM | Cc1cccc(-c2nc3n(c2-c2ccc4nc(N)sc4c2)CCN3)n1 [Example 48, 6-(6-(6-Methylpyridin-2-yl)-2,3-dihydro-1H-imidazo[1,2-a]imidazol-5-yl)benzo[d] thiazol-2-amine]
15 | < 1 nM | CCN1CCn2c1nc(-c1cccc(C)n1)c2-c1ccc2ncsc2c1 [Example 33, 6-[1-Ethyl-6-(6-methylpyridin-2-yl)-1H,2H,3H-imidazo[1,2-a][1,3]diazol-5-yl]-1,3-benzothiazole]
16 | 1 to 5 nM | Cc1cccc(-c2nc3n(c2-c2ccc4snnc4c2)CCN3)n1 [Example 30, 5-(6-(6-Methylpyridin-2-yl)-2,3-dihydro-1H-imidazo[1,2-a]imidazol-5-yl)benzo[d][1,2,3] thiadiazole]
17 | 1 to 5 nM | CCOC(=O)CC1Cn2c(nc(-c3cccc(C)n3)c2-c2cc3cnccc3s2)N1 (stereo not shown) [Example 20, Ethyl 2-[6-(6-methylpyridin-2-yl)-5-{thieno[3,2-c]pyridin-2-yl}-1H,2H,3H-imidazo[1,2-a][1,3]diazol-2-yl] acetate]
18 | 5 to 10 nM | Cc1cccc(-c2nc3n(c2-c2cccc4ncsc24)CCN3)n1 [Example 15]
19 | 5 to 10 nM | Cc1cccc(-c2nc3n(c2-c2ccnc(N)c2)CCN3)n1 [Example 56, 4-[6-(6-Methylpyridin-2-yl)-1H,2H,3H-imidazo[1,2-a][1,3]diazol-5-yl]pyridin-2-amine]

From patent US20250270215A1, “IMIDAZOLE DERIVATIVES AS ALK5 INHIBITORS” (CHIESI FARMACEUTICI S.P.A., priority 2022, published 2025)
